Converted amounts (≈) assume the structure as drawn.

The first test has as its system Streptococcus pneumoniae (Chester, ATCC49619). Description: Broth microdilution MIC assay, Streptococcus pneumoniae. It is filed as cell-based. To be noted: MIC class score, MIC100, broth microdilution.
Consider `Cc1nc(-c2ccc(-c3ccc4[nH]ccc4c3)o2)[nH]c1-c1ccccc1` [compound 144], for which the “Antibacterial activity Streptococcus pneumoniae” value is 3 (MIC100 of 2-5 μg/ml). Same read-out and setting: to `Cc1[nH]c(-c2ccc(-c3ccccc3C(F)(F)F)o2)nc1-c1ccc(Br)cc1` [compound 25] belongs 3 (MIC100 of 2-5 μg/ml); to `FC(F)(F)Oc1ccccc1-c1ccc(-c2ncc(-c3ccccc3)[nH]2)o1` [compound 63], 3 (MIC100 of 2-5 μg/ml); to `Cc1nc(-c2ccc(-c3ccccc3N(C)C)o2)[nH]c1-c1ccccc1` [compound 71], 3 (MIC100 of 2-5 μg/ml).

As to `Cc1cc(F)ccc1-c1ccc(-c2nc(-c3ccccc3)c(C)[nH]2)o1` [compound 164], the “Antibacterial activity Streptococcus pneumoniae” value is listed as 3 (MIC100 of 2-5 μg/ml). Same read-out and setting: to `Cc1nc(-c2ccc(-c3ccc(O)c(Cl)c3)o2)[nH]c1-c1ccccc1` [compound 157] belongs 3 (MIC100 of 2-5 μg/ml); to `Cc1[nH]c(-c2ccc(-c3ccc(C(C)(C)C)cc3)o2)nc1-c1ccccc1` [compound 165], 2 (MIC100 of 6-10 μg/ml); to `Cc1nc(-c2ccc(-c3cc(C(F)(F)F)ccc3Cl)o2)[nH]c1-c1ccccc1` [compound 40], 2 (MIC100 of 6-10 μg/ml). As to `Cc1nc(-c2ccc(-c3ccc4cc[nH]c4c3)o2)[nH]c1-c1ccccc1` [compound 152], the “Antibacterial activity Streptococcus pneumoniae” value is listed as 3 (MIC100 of 2-5 μg/ml). The same measure, in the same setting: the same measure for `Cc1nc(-c2ccc(-c3cccc(F)c3)o2)[nH]c1-c1ccccc1` [compound 146]: 3 (MIC100 of 2-5 μg/ml); for `Cc1ccc(-c2nc(-c3nc(-c4ccccc4)c(C)[nH]3)co2)cc1` [compound 57]: 3 (MIC100 of 2-5 μg/ml); for `Cc1ccc(-c2ccc(-c3nc(-c4ccccc4)c(C)[nH]3)s2)cc1` [compound 54]: 2 (MIC100 of 6-10 μg/ml).

Regarding `Cc1[nH]c(-c2cnn(-c3ccccc3)n2)nc1-c1ccccc1` [compound 73], the “Antibacterial activity Streptococcus pneumoniae” value was 2 (MIC100 of 6-10 μg/ml). On the same count and under the same terms, the same measure for `Cc1nc(-c2ccc(-c3ccc4occc4c3)o2)[nH]c1-c1ccccc1` [compound 159]: 3 (MIC100 of 2-5 μg/ml); for `Cc1nc(-c2ccc(-c3ccccc3Br)o2)[nH]c1C` [compound 84]: 2 (MIC100 of 6-10 μg/ml).

Regarding `Cc1nc(-c2ccc(-c3cc(C(F)(F)F)cc(C(F)(F)F)c3)o2)[nH]c1-c1ccccc1` [compound 35], the “Antibacterial activity Streptococcus pneumoniae” value was 2 (MIC100 of 6-10 μg/ml). As for `Cc1cccc(C)c1-c1ccc(-c2nc(C)c(-c3ccccc3)[nH]2)o1` [compound 62], the “Antibacterial activity Streptococcus pneumoniae” value is 3 (MIC100 of 2-5 μg/ml). As to `Cc1nc(-c2ccc(-c3ccc(O)cc3C(F)(F)F)o2)[nH]c1-c1ccccc1` [compound 139], the “Antibacterial activity Streptococcus pneumoniae” value is given as 3 (MIC100 of 2-5 μg/ml). The same measure, in the same setting: to `CCc1ccc(-c2ccc(-c3nc(-c4ccccc4)c(C)[nH]3)o2)cc1` [compound 53] belongs 3 (MIC100 of 2-5 μg/ml); to `Cc1nc(-c2ccc(-c3cccc4[nH]ccc34)o2)[nH]c1-c1ccccc1` [compound 138], 2 (MIC100 of 6-10 μg/ml); to `Cc1nc(-c2ccc(-c3ccc(F)cc3)o2)[nH]c1-c1ccccc1` [compound 148], 3 (MIC100 of 2-5 μg/ml). Same read-out and setting: the same measure for `Cc1nc(-c2ccc(-c3cc(F)ccc3C(F)(F)F)o2)[nH]c1-c1ccccc1` [31a]: 3 (MIC100 of 2-5 μg/ml); for `Cc1nc(-c2ccc(-c3ccc(O)cc3F)o2)[nH]c1-c1ccccc1` [compound 168]: 3 (MIC100 of 2-5 μg/ml); for `Cc1[nH]c(-c2cc(C)n(-c3ccc(Cl)cc3)c2C)nc1-c1ccccc1` [compound 8]: 3 (MIC100 of 2-5 μg/ml). `Cc1nc(-c2ccc(-c3cccc4cc[nH]c34)o2)[nH]c1-c1ccccc1` [compound 161]: the “Antibacterial activity Streptococcus pneumoniae” value is 3 (MIC100 of 2-5 μg/ml). The same measure, in the same setting: to `Cc1ccccc1-c1ccc(-c2nc(C)c(-c3ccccc3)[nH]2)o1` [compound 61] belongs 3 (MIC100 of 2-5 μg/ml); to `Cc1nc(-c2ccc(-c3ccccc3Cl)o2)[nH]c1C` [compound 86], 3 (MIC100 of 2-5 μg/ml); to `Cc1nc(-c2ccc(/C=C/c3ccccc3)o2)[nH]c1-c1ccccc1` [compound 143], 3 (MIC100 of 2-5 μg/ml). On the same count and under the same terms, the same measure for `Cc1[nH]c(-c2ccc(-c3c(F)cccc3F)o2)nc1-c1ccccc1` [compound 163]: 3 (MIC100 of 2-5 μg/ml); for `Cc1[nH]c(-c2ccc(-c3ccccc3F)o2)nc1-c1ccccc1` [compound 162]: 3 (MIC100 of 2-5 μg/ml); for `Cc1nc(-c2ccc(-c3ccc(O)c(C(F)(F)F)c3)o2)[nH]c1-c1ccccc1` [compound 155]: 3 (MIC100 of 2-5 μg/ml).

As to `Cc1nc(-c2ccc(-c3ccc(O)cc3Cl)o2)[nH]c1-c1ccccc1` [compound 158], the “Antibacterial activity Streptococcus pneumoniae” value is recorded as 3 (MIC100 of 2-5 μg/ml). Turning to `Cc1nc(-c2ccc(-c3ccc(F)c(F)c3)o2)[nH]c1-c1ccccc1` [compound 153], the “Antibacterial activity Streptococcus pneumoniae” value was 3 (MIC100 of 2-5 μg/ml).

The test is the same for the next values; noted with them: Streptococcus pneumoniae, ATCC49619; read-out: Antibacterial activity, SP (Streptococcus pneumoniae), MIC class.
Turning to `CCc1ccc(-c2[nH]c(-c3ccc(-c4ccccc4C(F)(F)F)o3)nc2C)cc1` [compound 28], the MIC was in the range of 2 to 5 µg/mL (≈ 5.05 to 12.6 µM). As to `Cc1[nH]c(-c2ccc(-c3ccccc3C(F)(F)F)o2)nc1-c1ccc(Br)cc1` [compound 25], the minimal inhibitory concentration (MIC) fell in the range of 2 to 5 µg/mL (≈ 4.47 to 11.2 µM). On the same count and under the same terms, the same measure for `FC(F)(F)Oc1ccccc1-c1ccc(-c2ncc(-c3ccccc3)[nH]2)o1` [compound 63]: 2 to 5 µg/mL (≈ 5.4 to 13.5 µM). Still for that read-out and setting: the same measure for `Cc1nc(-c2ccc(-c3ccccc3N(C)C)o2)[nH]c1-c1ccccc1` [compound 71]: 2 to 5 µg/mL (≈ 5.82 to 14.6 µM). As for `Cc1ccc(-c2ccc(-c3nc(-c4ccccc4)c(C)[nH]3)o2)cc1` [compound 52], the MIC was 6 to 10 µg/mL (≈ 19.1 to 31.8 µM).

For `Cc1nc(-c2ccc(-c3ccccc3C(F)(F)F)o2)[nH]c1-c1ccccc1Cl` [compound 20], the MIC was less than 1 µg/mL. Turning to `Cc1[nH]c(-c2ccc(-c3cccc(Cl)c3)s2)nc1-c1ccccc1` [compound 12], the MIC lay in the range of 2 to 5 µg/mL (≈ 5.7 to 14.3 µM).

Turning to `Cc1[nH]c(-c2cc(C)n(-c3ccc(C(C)C)cc3)c2C)nc1-c1ccccc1` [compound 58], the MIC is less than 1 µg/mL. On to `Cc1nc(-c2ccc(-c3cc(C(F)(F)F)ccc3Cl)o2)[nH]c1-c1ccccc1` [compound 40], for which the MIC is 6 to 10 µg/mL (≈ 14.9 to 24.8 µM). Same read-out and setting: the same measure for `Cc1ccc(-c2nc(-c3nc(-c4ccccc4)c(C)[nH]3)co2)cc1` [compound 57]: 2 to 5 µg/mL (≈ 6.34 to 15.9 µM).

For the molecule `Cc1[nH]c(-c2ccc(-c3ccc(F)cc3)s2)nc1-c1ccccc1` [compound 7], the MIC lay within 2 to 5 µg/mL (≈ 5.98 to 15 µM). The same measure, in the same setting: the same measure for `Cc1[nH]c(-c2cc(C)n(-c3ccc4c(c3)CCC4)c2C)nc1-c1ccccc1` [compound 59]: 2 to 5 µg/mL (≈ 5.44 to 13.6 µM). For `Cc1ccc(-c2ccc(-c3nc(-c4ccccc4)c(C)[nH]3)s2)cc1` [compound 54], the MIC was in the range of 6 to 10 µg/mL (≈ 18.2 to 30.3 µM). Take `Cc1ccc(-c2ncc(-c3nc(-c4ccccc4)c(C)[nH]3)s2)cc1` [compound 55]: the MIC was 2 to 5 µg/mL (≈ 6.03 to 15.1 µM). For `Cc1[nH]c(-c2coc(-c3ccccc3C(F)(F)F)c2)nc1-c1ccccc1` [compound 72], the MIC was in the range of 6 to 10 µg/mL (≈ 16.3 to 27.1 µM).

`Cc1[nH]c(-c2cnn(-c3ccccc3)n2)nc1-c1ccccc1` [compound 73]: the MIC fell in the range of 6 to 10 µg/mL (≈ 19.9 to 33.2 µM). Same read-out and setting: the same measure for `Cc1[nH]c(-c2csc(-c3cccc(Br)c3)n2)nc1-c1ccccc1` [compound 14]: 2 to 5 µg/mL (≈ 5.05 to 12.6 µM). As to `C#Cc1ccc(-c2[nH]c(-c3ccc(-c4ccccc4C(F)(F)F)o3)nc2C)cc1` [compound 27], the MIC is less than 1 µg/mL. Consider `Cc1[nH]c(-c2cc(C)n(-c3ccc(F)c(F)c3F)c2C)nc1-c1ccccc1` [compound 10], for which the MIC lay in the range of 2 to 5 µg/mL (≈ 5.24 to 13.1 µM). Regarding `Cc1[nH]c(-c2ccc(-c3ccccc3)s2)nc1-c1ccccc1` [compound 74], the MIC lay in the range of 2 to 5 µg/mL (≈ 6.32 to 15.8 µM).

In the case of `Cc1ccc(-c2nc(-c3nc(-c4ccccc4)c(C)[nH]3)cs2)cc1` [compound 56], the minimum inhibitory concentration (MIC) fell in the range of 2 to 5 µg/mL (≈ 6.03 to 15.1 µM). On the same count and under the same terms, the same measure for `Cc1cccc(C)c1-c1ccc(-c2nc(C)c(-c3ccccc3)[nH]2)o1` [compound 62]: 2 to 5 µg/mL (≈ 6.09 to 15.2 µM); for `Cc1[nH]c(-c2cc(C)n(-c3ccc(F)cc3F)c2C)nc1-c1ccccc1` [compound 9]: 2 to 5 µg/mL (≈ 5.5 to 13.8 µM). The same measure, in the same setting: the same measure for `CCc1ccc(-c2ccc(-c3nc(-c4ccccc4)c(C)[nH]3)o2)cc1` [compound 53]: 2 to 5 µg/mL (≈ 6.09 to 15.2 µM); for `Cc1[nH]c(-c2csc(-c3ccc(F)cc3)n2)nc1-c1ccccc1` [compound 11]: 2 to 5 µg/mL (≈ 5.96 to 14.9 µM). Still for that read-out and setting: to `Cc1[nH]c(-c2ccc(-c3cccc(Br)c3)s2)nc1-c1ccccc1` [compound 13] belongs 2 to 5 µg/mL (≈ 5.06 to 12.6 µM); to `COc1ccc(-c2ccc(-c3nc(C)c(-c4ccccc4)[nH]3)o2)c(C(F)(F)F)c1` [compound 31], less than 1 µg/mL; to `Cc1[nH]c(-c2ccc(-c3ccccc3OC(F)(F)F)o2)nc1-c1ccc(C(F)(F)F)cc1` [compound 26], 2 to 5 µg/mL (≈ 4.42 to 11.1 µM).

Consider `Cc1[nH]c(-c2cc(C)n(-c3ccc(Cl)cc3)c2C)nc1-c1ccccc1` [compound 8], for which the MIC lay within 2 to 5 µg/mL (≈ 5.53 to 13.8 µM). For the molecule `Cc1ccccc1-c1ccc(-c2nc(C)c(-c3ccccc3)[nH]2)o1` [compound 61], the MIC lay within 2 to 5 µg/mL (≈ 6.36 to 15.9 µM).

For `Cc1nc(-c2ccc(-c3ccc(Cl)cc3)o2)[nH]c1-c1ccccc1` [compound 5], the MIC was less than 1 µg/mL.

For the next test, the system named is Staphylococcus aureus MRSA (COL). Description: Broth microdilution MIC assay, Staphylococcus aureus MRSA (COL). The test is classed as cell-based. To be noted: MIC class score, MIC100, broth microdilution, COL strain.
With `CCCc1nc(-c2ccc(-c3c(C)cccc3C)o2)[nH]c1C` [compound 103], the “Antibacterial activity Staphylococcus aureus (MRSA)” value is 3 (MIC100 of 3-10 μg/ml). Still for that read-out and setting: the same measure for `CCCc1[nH]c(-c2ccc(-c3cccc4[nH]ccc34)o2)nc1C` [compound 108]: 2 (MIC100 of 11-20 μg/ml); for `CCCc1nc(-c2sc(-c3ccccc3C(F)(F)F)c3c2OCCO3)[nH]c1C` [Compound 114]: 3 (MIC100 of 3-10 μg/ml).

Take `CCCc1[nH]c(-c2ccc(-c3ccccc3Cl)s2)nc1C` [compound 82]: the “Antibacterial activity Staphylococcus aureus (MRSA)” value is given as 3 (MIC100 of 3-10 μg/ml). For the molecule `CCCc1[nH]c(-c2ccc(-c3ccccc3)o2)nc1C` [compound 94], the “Antibacterial activity Staphylococcus aureus (MRSA)” value is on record as 3 (MIC100 of 3-10 μg/ml).

For `CCCc1nc(-c2csc(-c3ccccc3C(F)(F)F)c2)[nH]c1C` [Compound 113], the “Antibacterial activity Staphylococcus aureus (MRSA)” value is 3 (MIC100 of 3-10 μg/ml). Consider `CCCc1nc(-c2ccc(-c3ccccc3N(C)C)o2)[nH]c1C` [compound 98], for which the “Antibacterial activity Staphylococcus aureus (MRSA)” value is on record as 3 (MIC100 of 3-10 μg/ml). Still for that read-out and setting: the same measure for `CCCc1[nH]c(-c2ccc(-c3ccc(Cl)cc3Cl)o2)nc1C` [compound 109]: 2 (MIC100 of 11-20 μg/ml).

As for `CCCc1nc(-c2ccc(-c3ccccc3C)o2)[nH]c1C` [compound 100], the “Antibacterial activity Staphylococcus aureus (MRSA)” value is recorded as 2 (MIC100 of 11-20 μg/ml).

The record behind these values is patent US10456379B2, “Imidazole-based antimicrobial agents” (priority 2014, dated 2019).
